Assay results taken from patent US20240148821A1, “PHARMACEUTICAL USE OF CYCLIC PEPTIDE COMPOUND” (CHUGAI SEIYAKU KABUSHIKI KAISHA, priority 2021, published 2024).
Numbered stars: 1 amine (or outer) side, 2 acyl side, 3 side chain; on linkers, the order of the positions; unused ones are H or OH. Bridge positions count the residues as written; N and C are the ends. Square brackets hold non-standard residues; d marks the D form. Peptide text beside a SMILES is read from it. * marks the point of attachment. hPhe(3-Cl-4-CF3) = N[C@@H](CCc1ccc(C(F)(F)F)c(Cl)c1)C(=O)O; X25 = COc1ccc(C[C@@H](C(=O)[*:2])N(C)[*:1])cn1; NMePhe(4-Me) = CN[C@@H](Cc1ccc(C)cc1)C(=O)O; NMePhe(4-F) = CN[C@@H](Cc1ccc(F)cc1)C(=O)O; Oic = O=C(O)[C@@H]1C[C@@H]2CCCC[C@@H]2N1; NMeGly(cPent) = CN[C@H](C(=O)O)C1CCCC1; Phe(2-OMe) = COc1ccccc1C[C@H](N)C(=O)O; Phe(3-I) = N[C@@H](Cc1cccc(I)c1)C(=O)O; NMeCha = CN[C@@H](CC1CCCCC1)C(=O)O; NMeGly(cPr) = CN[C@H](C(=O)O)C1CC1; NMeChg = CN[C@H](C(=O)O)C1CCCCC1; NMeF = CN[C@@H](Cc1ccccc1)C(=O)O; NMeD = CN[C@@H](CC(=O)O)C(=O)O; NMeL = CN[C@@H](CC(C)C)C(=O)O; NMehSer = CN[C@@H](CCO)C(=O)O; NMeV = CN[C@H](C(=O)O)C(C)C; d(β3hA) = C[C@@H](N)CC(=O)O; NMeA = CN[C@@H](C)C(=O)O; NMeAib = CNC(C)(C)C(=O)O; Piperidide = C1CCN(*)CC1; Pra = C#CC[C@H](N)C(=O)O; Ac5c = NC1(C(=O)O)CCCC1; Aze = O=C(O)[C@@H]1CCN1; Abu = CC[C@H](N)C(=O)O; Ac3c = NC1(C(=O)O)CC1; Sar = CNCC(=O)O

system: Human pancreatic cancer cell line AsPC-1 (G12D mutation Kras); assay: AsPC-1 cell growth inhibition (AsPC-1 CGI); type: cell-based; details: read-out: AsPC-1 cell growth inhibition, 50% growth inhibitory concentration (IC50 value); 96 hours, CellTiter-Glo, values classified in ranges
Experimental: Test compounds were serially dilated with dimethyl sulfoxide, and 200 nL was then dispensed to a U-bottom 96-well plate using Labcyte Echo. […] The cell suspension was dispensed to a. plate containing a test compound at 100 μL per well and incubated at 37° C. in a 5% carbon dioxide gas incubator. 96 hours later, 80 μL of CellTiter-Glo (Promega) was added to each well and fluorescence was measured.

Row | Structure (SMILES) | IC50
1 | CC[C@@H]1NC(=O)[C@H]([C@@H](C)CC)NC(=O)[C@H](CC(C)C)N(C)C(=O)C[C@@H](C)NC(=O)[C@H](C(C)C)N(C)C(=O)C2(CCCC2)NC(=O)[C@@H]2CCCN2C(=O)[C@H](CCc2ccc(C(F)(F)F)c(Cl)c2)NC(=O)CN(C)C(=O)[C@H](CC2CCCCC2)N(C)C(=O)CN(C)C1=O [Compound 1459] (cyclo([Abu][Sar][NMeCha][Sar][hPhe(3-Cl-4-CF3)]P[Ac5c][NMeV][d(β3hA)][NMeL]I)) | > 500 nM
2 | CC[C@H](C)[C@@H]1NC(=O)[C@H](CC(C)C)N(C)C(=O)C[C@@H](C(=O)N2CCCCC2)N(C)C(=O)[C@H](CC(C)C)NC(=O)C(C)(C)N(C)C(=O)[C@H](Cc2ccccc2OC)NC(=O)[C@H](Cc2cccc(I)c2)NC(=O)CN(C)C(=O)[C@H](Cc2ccc(C)cc2)N(C)C(=O)CN(C)C(=O)CN(C)C1=O [Compound 1100] ([NMeL]I[Sar][Sar][NMePhe(4-Me)][Sar][Phe(3-I)][Phe(2-OMe)][NMeAib]L[NMeD]-Piperidide; lactam N-11) | > 500 nM
3 | CC[C@H](C)[C@@H]1NC(=O)[C@H](CC(C)C)N(C)C(=O)C[C@@H](C(=O)N2CCCCC2)N(C)C(=O)[C@H](C2CCCCC2)N(C)C(=O)C2(CCCC2)NC(=O)[C@@H]2C[C@@H]3CCCC[C@@H]3N2C(=O)[C@H](CCc2ccc(C(F)(F)F)c(Cl)c2)NC(=O)CN(C)C(=O)[C@H](CC2CCCCC2)N(C)C(=O)CN(C)C(=O)CN(C)C1=O [Compound 297] ([NMeL]I[Sar][Sar][NMeCha][Sar][hPhe(3-Cl-4-CF3)][Oic][Ac5c][NMeChg][NMeD]-Piperidide; lactam N-11) | > 500 nM
4 | CC[C@H](C)[C@@H]1NC(=O)[C@H](CC(C)C)N(C)C(=O)C[C@@H](C(=O)N2CCCCC2)N(C)C(=O)[C@H](C2CCCCC2)N(C)C(=O)C2(CCCC2)NC(=O)[C@H](Cc2ccc(OC)nc2)N(C)C(=O)[C@H](CCc2ccc(C(F)(F)F)c(Cl)c2)NC(=O)CN(C)C(=O)[C@H](CC2CCCCC2)N(C)C(=O)[C@@H]2CCN2C(=O)CN(C)C1=O [Compound 614] ([NMeL]I[Sar][Aze][NMeCha][Sar][hPhe(3-Cl-4-CF3)][X25][Ac5c][NMeChg][NMeD]-Piperidide; lactam N-11) | > 500 nM
5 | C#CC[C@@H]1NC(=O)[C@H](Cc2cccc(I)c2)NC(=O)CN(C)C(=O)[C@H](Cc2ccccc2)N(C)C(=O)[C@@H]2CCN2C(=O)[C@H](C)N(C)C(=O)[C@H]([C@@H](C)CC)NC(=O)[C@H](CC(C)C)N(C)C(=O)C[C@@H](C(=O)N2CCCCC2)N(C)C(=O)[C@H](CC(C)C)NC(=O)C(C)(C)N(C)C1=O [Compound 1313] ([NMeL]I[NMeA][Aze][NMeF][Sar][Phe(3-I)][Pra][NMeAib]L[NMeD]-Piperidide; lactam N-11) | > 500 nM
6 | CC[C@H](C)[C@@H]1NC(=O)[C@H](CC(C)C)N(C)C(=O)C[C@@H](C(=O)N(C)C)N(C)C(=O)[C@H](C2CCCC2)N(C)C(=O)C2(CCCC2)NC(=O)[C@@H]2CCCN2C(=O)[C@H](CCc2ccc(C(F)(F)F)c(Cl)c2)NC(=O)CN(C)C(=O)[C@H](Cc2ccc(C)cc2)N(C)C(=O)[C@@H]2CCN2C(=O)[C@H](C)N(C)C1=O [Compound 1756] ([NMeL]I[NMeA][Aze][NMePhe(4-Me)][Sar][hPhe(3-Cl-4-CF3)]P[Ac5c][NMeGly(cPent)][NMeD]-NMe2; lactam N-11) | ≤ 20 nM
7 | CC[C@H](C)[C@@H]1NC(=O)[C@H](C)N(C)C(=O)C[C@@H](C(=O)N2CCCCC2)N(C)C(=O)[C@H](C(C)C)N(C)C(=O)C2(CCCC2)NC(=O)[C@@H]2CCCN2C(=O)[C@H](CCc2ccc(C(F)(F)F)c(Cl)c2)NC(=O)[C@H]2CCCN2C(=O)[C@H](Cc2ccc(F)cc2)N(C)C(=O)[C@@H]2CCCN2C(=O)CN(C)C1=O [Compound 1725] ([NMeA]I[Sar]P[NMePhe(4-F)][dP][hPhe(3-Cl-4-CF3)]P[Ac5c][NMeV][NMeD]-Piperidide; lactam N-11) | > 500 nM
8 | CC[C@H](C)[C@@H]1NC(=O)[C@H](CC(C)C)N(C)C(=O)C[C@@H](C(=O)N2CCCCC2)N(C)C(=O)[C@H](C(C)C)N(C)C(=O)C2(CC2)NC(=O)[C@@H]2CCCN2C(=O)[C@H](CCc2ccc(C(F)(F)F)c(Cl)c2)NC(=O)CN(C)C(=O)[C@H](CC2CCCCC2)N(C)C(=O)CN(C)C(=O)CN(C)C1=O [Compound 468] ([NMeL]I[Sar][Sar][NMeCha][Sar][hPhe(3-Cl-4-CF3)]P[Ac3c][NMeV][NMeD]-Piperidide; lactam N-11) | > 500 nM
9 | CC[C@H](C)[C@@H]1NC(=O)[C@H](CC(C)C)N(C)C(=O)C[C@@H](C(=O)N2CCCCC2)N(C)C(=O)[C@H](C2CCCCC2)N(C)C(=O)C2(CCCC2)NC(=O)[C@@H]2CCCN2C(=O)[C@H](CCc2ccc(C(F)(F)F)c(Cl)c2)NC(=O)CN(C)C(=O)[C@H](C2CC2)N(C)C(=O)CN(C)C(=O)CN(C)C1=O [Compound 1666] ([NMeL]I[Sar][Sar][NMeGly(cPr)][Sar][hPhe(3-Cl-4-CF3)]P[Ac5c][NMeChg][NMeD]-Piperidide; lactam N-11) | > 500 nM
10 | CC[C@H](C)[C@@H]1NC(=O)[C@H](CC(C)C)N(C)C(=O)C[C@@H](C(=O)N2CCCCC2)N(C)C(=O)[C@H](C2CCCCC2)N(C)C(=O)C2(CCCC2)NC(=O)[C@@H]2CCCN2C(=O)[C@H](CCc2ccc(C(F)(F)F)c(Cl)c2)NC(=O)CN(C)C(=O)[C@H](CCOC)N(C)C(=O)CN(C)C(=O)CN(C)C1=O [Compound 159] ([NMeL]I[Sar][Sar][NMehSer](Me)[Sar][hPhe(3-Cl-4-CF3)]P[Ac5c][NMeChg][NMeD]-Piperidide; lactam N-11) | > 500 nM
